This note sets out measurements from ChEMBL document CHEMBL1201862, “PubChem BioAssay data set” (2004).

Among the test systems are KM-20L2; MOLT-4; 786-0; SF-295; EKVX; CCRF-CEM; OVCAR-4; CAKI-1; SF-268; SNB-19; SK-OV-3; UO-31; UACC-257; SNB-75; SN12C; Malme-3M; NCI-H226; SR; MCF7; MDA-MB-435.
Common to all, as to assay: growth of human tumour cells (NCI), 48 h

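1) Cells in 96-well plates. 2) Compound, 48 h, 5 concentrations. 3) Linear interpolation between surrounding doses. 4) Unreached endpoint = highest concentration. GI50 is the concentration that inhibits growth by half.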 The source made the active and inactive calls. No stated cut-off is given here; in the data, active = GI50 up to about 1.1 µM and inactive = higher.

For the compound `CSc1snc2sc3c(Cl)nnnc3c12`, the GI50 in the assay with KM-20L2 was 14 µM (inactive); in the assay with MOLT-4 it was 2.98 µM (inactive); in the assay with 786-0 it was 15.9 µM (inactive); in the assay with SF-295, 18 µM (inactive); in the assay with EKVX, 19.6 µM (inactive); in the assay on CCRF-CEM, 2.12 µM (inactive). Moreover, the GI50 in the assay with OVCAR-4 is 14.8 µM (inactive); in the assay with CAKI-1, 4.42 µM (inactive); with SF-268, 16.9 µM (inactive); in the assay on SNB-19 it was 15.8 µM (inactive); in the assay with SK-OV-3, 17.7 µM (inactive); in the assay on UO-31, 13 µM (inactive). In addition, the GI50 with UACC-257 is 12.8 µM (inactive); with SNB-75, 11.5 µM (inactive); in the assay with SN12C it was 15.3 µM (inactive); in the assay on Malme-3M, 11.4 µM (inactive).
Take `CCc1cccc(C)c1NC(=O)CC(=O)NNC(N)=S`: the GI50 with KM-20L2, in the assay on MOLT-4, in the assay with 786-0, in the assay with SF-295, with NCI-H226 and in the assay with EKVX was > 100 µM (inactive) each time. Moreover, the GI50 in the assay with CCRF-CEM, in the assay with OVCAR-4, in the assay with CAKI-1, with SF-268, in the assay on SNB-19 and in the assay with SK-OV-3 was > 100 µM (inactive) in each case. For the same compound, the GI50 in the assay with UO-31, in the assay with UACC-257, in the assay on SNB-75, with SN12C and in the assay with Malme-3M was > 100 µM (inactive) throughout.
In the case of `Cc1ccc(S(=O)(=O)N(/N=C/C=C/c2ccccc2)c2nnc(-c3ccccc3)c(-c3ccccc3)n2)cc1`, the GI50 was 17.9 µM (inactive) with KM-20L2; 12.9 µM (inactive) in the assay with MOLT-4; 20.8 µM (inactive) with 786-0; 19 µM (inactive) in the assay on SF-295; 18.3 µM (inactive) in the assay on NCI-H226; 24.9 µM (inactive) in the assay on EKVX. The GI50 in the assay on CCRF-CEM is 21.9 µM (inactive); with OVCAR-4, 9.82 µM (inactive); with CAKI-1, 17.9 µM (inactive); with SF-268, 25.9 µM (inactive); in the assay with SNB-19, 71.9 µM (inactive); in the assay on SK-OV-3, 34.5 µM (inactive). For the same compound, the GI50 in the assay on UO-31 is 5.86 µM (inactive); in the assay with UACC-257, 13.3 µM (inactive); in the assay on SNB-75, 22.4 µM (inactive); in the assay with SN12C, 38.4 µM (inactive); with Malme-3M, 30 µM (inactive).
Consider `CSc1nc(NC2OC(COC(C)=O)C(OC(C)=O)C(OC(C)=O)C2OC(C)=O)c(/N=C/C=N/c2c(NC3OC(COC(C)=O)C(OC(C)=O)C(OC(C)=O)C3OC(C)=O)nc(SC)[nH]c2=O)c(=O)[nH]1` (centres undefined), for which the GI50 in the assay on KM-20L2, with SR, with 786-0, with SF-295, with EKVX and with OVCAR-4 was > 100 µM (inactive) each time. Also, the GI50 in the assay with SF-268, in the assay on SNB-19, with SK-OV-3, in the assay on UO-31, in the assay on UACC-257 and in the assay on SNB-75 was > 100 µM (inactive) throughout. Besides, the GI50 with SN12C and with Malme-3M was > 100 µM (inactive) throughout.
For the compound `COc1cccc(/C=C(\NC(C)=O)c2nc3cc(Cl)ccc3[nH]2)c1`, the GI50 in the assay on KM-20L2, in the assay with SR, in the assay on MOLT-4, in the assay with 786-0, with SF-295 and with EKVX was > 100 µM (inactive) in each case. Besides, the GI50 in the assay on CCRF-CEM, in the assay with OVCAR-4, with CAKI-1, in the assay on SF-268, in the assay on SNB-19 and with SK-OV-3 was > 100 µM (inactive) throughout. For the same compound, the GI50 in the assay with UO-31, in the assay on SN12C and with Malme-3M was > 100 µM (inactive) throughout.
As for `CC1(Br)C(=O)NC(=O)N(C2CC(N=[N+]=[N-])C(CO)O2)C1N=[N+]=[N-]` (centres undefined), the GI50 is > 100 µM (inactive) with KM-20L2; > 100 µM (inactive) in the assay on MOLT-4; > 100 µM (inactive) in the assay with 786-0; > 100 µM (inactive) with SF-295; > 100 µM (inactive) with EKVX; 53.1 µM (inactive) in the assay on CCRF-CEM. Besides, the GI50 was > 100 µM (inactive) with OVCAR-4; 70.8 µM (inactive) with CAKI-1; > 100 µM (inactive) with SF-268; > 100 µM (inactive) in the assay with SNB-19; > 100 µM (inactive) in the assay on SK-OV-3; > 100 µM (inactive) with UO-31. Also, the GI50 with UACC-257 is > 100 µM (inactive); in the assay on SNB-75, > 100 µM (inactive); in the assay with SN12C it was > 100 µM (inactive); in the assay with Malme-3M it was 97.9 µM (inactive).
For the compound `O=C1NC(=O)C(C(=O)C(=O)Nc2ccc(Cl)cc2Cl)C(=O)N1`, the GI50 in the assay with KM-20L2, in the assay with MOLT-4, in the assay with 786-0, in the assay with SF-295, in the assay with EKVX and in the assay on CCRF-CEM was > 100 µM (inactive) in each case. For the same compound, the GI50 in the assay with OVCAR-4, in the assay with CAKI-1, in the assay on SNB-19, in the assay with SK-OV-3, in the assay with UO-31 and with UACC-257 was > 100 µM (inactive) in each case. For the same compound, the GI50 in the assay with Malme-3M is > 100 µM (inactive).
Turning to `O=C1OCC(C(=O)c2cccc(O)c2)C1=O` (centres undefined), the GI50 in the assay with KM-20L2, with 786-0, in the assay on SF-295, in the assay with NCI-H226, in the assay on EKVX and with OVCAR-4 was > 100 µM (inactive) throughout. In addition, the GI50 in the assay on CAKI-1, in the assay with SF-268, in the assay on SNB-19, in the assay on SK-OV-3, in the assay on UO-31 and with UACC-257 was > 100 µM (inactive) each time. Further, the GI50 in the assay with SNB-75, with SN12C and in the assay on Malme-3M was > 100 µM (inactive) in each case.
On to `C=CC1=C(C)c2cc3[nH]c(cc4nc(cc5[nH]c(cc1n2)c(C)c5CCC(=O)N(CC)CC)C(CCC(=O)N(CC)CC)=C4C)c(C)c3C=C`, for which the GI50 with KM-20L2 is > 100 µM (inactive); in the assay on SR, > 100 µM (inactive); in the assay with MOLT-4 it was > 100 µM (inactive); in the assay with 786-0, > 100 µM (inactive); in the assay on SF-295, 61.2 µM (inactive); with EKVX, > 100 µM (inactive). For the same compound, the GI50 in the assay on CCRF-CEM is > 100 µM (inactive); with OVCAR-4, > 100 µM (inactive); in the assay with SK-OV-3, > 100 µM (inactive); with UO-31, > 100 µM (inactive); in the assay with UACC-257, > 100 µM (inactive); in the assay with SNB-75, 29.4 µM (inactive). Also, the GI50 with SN12C and in the assay on Malme-3M was > 100 µM (inactive) each time.
For `N#Cc1nc(-c2ccccn2)c(-c2ccccn2)nc1C#N`, the GI50 in the assay with SR is 1.82 µM (inactive); in the assay on MOLT-4 it was 4.19 µM (inactive); in the assay on 786-0 it was 0.515 µM (active); in the assay with SF-295 it was 0.811 µM (active); in the assay on NCI-H226, 0.593 µM (active); in the assay with MCF7 it was 1.22 µM (inactive). Also, the GI50 was 3.15 µM (inactive) in the assay on EKVX; 2.7 µM (inactive) in the assay on MDA-MB-435; 2.69 µM (inactive) in the assay with CCRF-CEM; 1.79 µM (inactive) with OVCAR-4; 2.04 µM (inactive) in the assay with CAKI-1; 1.25 µM (inactive) with SF-268. For the same compound, the GI50 in the assay with SNB-19 was 4.1 µM (inactive); in the assay on SK-OV-3 it was 1.6 µM (inactive); in the assay with UO-31, 1.3 µM (inactive); in the assay on UACC-257, 3.65 µM (inactive); in the assay with SNB-75, 8.05 µM (inactive); in the assay on SN12C, 4.82 µM (inactive). Also, the GI50 in the assay with Malme-3M is 1.45 µM (inactive).
For `CC(=O)O[C@@H]1CO[C@H]2O[C@H]3[C@@H](C(C=O)=C[C@H](O)[C@@H]4C5=C(C(C)C)CC[C@]5(C)CC[C@@]34C)[C@@]2(O)C1=O` [STRIATIN E], the GI50 is 0.146 µM (active) in the assay with SR; 0.0906 µM (active) with MOLT-4; 0.112 µM (active) in the assay on 786-0; 0.586 µM (active) in the assay with SF-295; 0.378 µM (active) in the assay with NCI-H226; 0.217 µM (active) in the assay on MCF7. The GI50 with EKVX was 0.359 µM (active); with MDA-MB-435 it was 0.174 µM (active); in the assay on CCRF-CEM, < 0.0271 µM (active); in the assay with OVCAR-4 it was 0.241 µM (active); in the assay with CAKI-1 it was 0.2 µM (active); with SF-268, 0.24 µM (active). Besides, the GI50 in the assay with SNB-19 is 0.692 µM (active); with SK-OV-3, 3.74 µM (inactive); in the assay on UO-31, 0.241 µM (active); in the assay on UACC-257 it was 0.219 µM (active); with SNB-75, 0.0736 µM (active); in the assay with SN12C, 0.156 µM (active). In the assay with Malme-3M, the GI50 was 0.177 µM (active).
Consider `O=C(O)Cc1ccc2c(c1)/C(=C1/Nc3ccccc3C1=O)C(=O)N2`, for which the GI50 in the assay with SR is 21.9 µM (inactive); in the assay with MOLT-4, 25.8 µM (inactive); with 786-0, 27.5 µM (inactive); in the assay on SF-295 it was 80.5 µM (inactive); in the assay with NCI-H226 it was 60.8 µM (inactive); with MCF7 it was 10.8 µM (inactive). The GI50 in the assay with EKVX is 26.2 µM (inactive); with MDA-MB-435 it was 36.1 µM (inactive); in the assay on CCRF-CEM, 34.4 µM (inactive); in the assay with OVCAR-4, 21.9 µM (inactive); with CAKI-1, 24.8 µM (inactive); with SF-268, 58.2 µM (inactive). Further, the GI50 was 66.2 µM (inactive) with SNB-19; 23.4 µM (inactive) with SK-OV-3; 49 µM (inactive) in the assay on UO-31; 32.3 µM (inactive) in the assay with UACC-257; 26.1 µM (inactive) in the assay on SNB-75; 56.1 µM (inactive) in the assay on SN12C. Moreover, in the assay with Malme-3M, the GI50 was 27.4 µM (inactive).
